Columns and labels:
[1] = test system: intraocular inflammation after anterior chamber puncture; assay: Medicinal efficacy test in a model rabbit of anterior chamber puncture; assay type: in vivo, Male Dutch rabbits; details: after anterior chamber puncture in rabbits
Protocol: The concentration of said medicament in the anterior chamber can be measured by the HPLC method for the anterior aqueous humor collected through anterior chamber puncture, as shown in Experimental Example 1 (Penetration Test of a Medicament in the Aqueous Humor) described below. Male Dutch rabbits (Biotech Co., Ltd) with a body weight of about 2 kg was bred and acclimatized under the condition that the temperature was 23±2° C. and the humidity was 55±10%. On the day of the test, the flare value of anterior chamber in the rabbits was determined by a laser flare cell meter (FC-1000, Kowa Company, Ltd.). […] The eye drops of Formulations 4 to 6 in Table 4 were prepared and used. At 30 minutes before the puncture of the anterior chamber, 1,000 U/kg of heparin (Heparin sodium injection, Ajinomoto Co., Inc.) was administered into the rabbit's ear vein. […] The flare value (photon count/msec) in the anterior chamber was determined 30 minutes after the puncture of anterior chamber using a laser flare cell meter (FC-1000, Kowa Company, Ltd.). […] An inhibition rate of inflammation after the puncture of anterior chamber was calculated according to the following equation. […]

[2] = pH 7.8

SMILES | concentration in the anterior aqueous humor at which the intraocular inflammation can be inhibited by at least not less than about 25% (therapeutically effective concentration) [1] | Octanol-water partition coefficient of 2-amino-3-(4-bromobenzoyl)phenylacetic acid [2]
Nc1c(CC(=O)O)cccc1C(=O)c1ccc(Br)cc1 [2-Amino-3-(4-bromobenzoyl)phenylacetic acid] | not less than 1.5 ng/mL | 
Nc1c(CC(=O)[O-])cccc1C(=O)c1ccc(Br)cc1.Nc1c(CC(=O)[O-])cccc1C(=O)c1ccc(Br)cc1.O.O.O.[Na+].[Na+] [Control, Sodium 2-amino-3-(4-bromobenzoyl)phenylacetate 3/2 hydrate, reference compound] |  | 0.60

From US8299124B2, “Aqueous intraocular penetration-promoting eye drop” (Senju Pharmaceutical Co., Ltd., priority 2004, dated 2012)
